Counter-ions that a name gives are not always drawn. Like-named read-outs stand apart in the source and are kept apart here.
How the values were obtained:
L1210 leukemia [1] = assay: animal or person; format: in vivo, mice (BDFl male); details: Mus musculus, L1210, ip, 10 mg/Kg/day, read-out: % T/C (mean survival time treated/mean survival time control ×100)
Experimental: The following study of the antitumor activity of the compounds of formula (I) against L1210 leukemia illustrates this aspect of the present invention.
Groups of 6 mice (BDFl male) were inoculated i.p. with 10^5 L1210 leukemia cells on day 0. Test compounds or vehicle (Control group) were administered at the indicated doses starting on day 1 and continuing through day 5 or 9. Relative survival time was determined and expressed as % T/C (mean survival time treated/mean survival time control ×100). Presence or absence of delayed toxicity was determined by an examination o the animal's external appearance and behavior during the study. For example, an emaciated condition is a key indication of delayed toxicity in these studies.

L1210 leukemia [2] = details: 6.25 mg/Kg × 4 doses per day, days 3 thru 7, n=6, Edwards et al., cited from earlier work
L1210 leukemia [3] = assay: Curative Effect Against Advanced L1210 Leukemia (survival, cures); format: in vivo, mice (BDFl male); details: for Cured (mice surviving beyond day 45) / Survival in days (Mean ± S.E.): n=5
Experimental: In an additional study, groups of 5 mice (BDFl male) were inoculated i.p. with 10^5 L1210 leukemia cells on day 0. N,N'-bis[3-(ethylamino)propyl]-1,7-diaminoheptane or vehicle (Control group) were administered at the indicated doses and on the indicated days. […] In a similar study, N,N'-bis[3-(amino)propyl]-1,8-diaminooctane, administered at a dose of […] on days 3 through 7, provided a %T/C of 350 but no cures in 6 animals [Edwards et al., J. Med. Chem. 33, 1369 (1990), See Table II infra].

[4] = test system: 3LL (Lewis lung) carcinoma cells; assay: Experimental Murine Lung Metastasis (3LL Lewis lung carcinoma cells injected into footpad); format: in vivo, C57BL/6 mice
Experimental: C57BL/6 mice were injected into the footpad on day 0 with 3LL (Lewis lung) carcinoma cells (1×10^6) so as to induce lung metastasis. Lung metastatic foci were determined as described by Sunkara et al. [J.Biological Response Modifiers 8, 170 (1989)]. Briefly, injected animals were randomly allocated to one of two treatment groups, 6 animals per group, and test compound or vehicle (Control) was administered i.p. at the doses and times indicated in Table 4. Lung metastatic foci were determined on day 18.

[5] = test system: MCA-38 colon adenocarcinoma cells; assay: Experimental Murine Liver Metastasis (MCA-38 colon adenocarcinoma cells injected intrasplenically); format: in vivo, C57BL/6 mice; details: i.p., day 14; for Liver Metastasis No. foci ± S.E.: n = 6, p < 0.001, control 220.6 ± 22.2
Experimental: C57BL/6 mice were injected intrasplenically on day 0 with MCA-38 colon adenocarcinoma cells (1×10^5) so as to induce hepatic metastasis. Liver metastatic foci were determined as described by Bowlin et al. [Cancer Res. 50, 5460 (1990)]. Briefly, injected animals were randomly allocated to one of three treatment groups, 6 animals per group, and test compound or vehicle (Control) was administered i.p. at the doses and times indicated in Table 3. Liver metastatic foci were determined on day 14.

[6] = 5 mg/Kg × 4 doses per day, days 3, 4, 5
[7] = 5 mg/Kg × 4 doses per day, days 3, 4
[8] = 10 mg/Kg × 4 doses per day, days 3, 4

What does the source list for NCCCNCCCCCCCCNCCCN [Compound 26547, N,N'-bis[3-(amino)propyl]-1,8-diaminooctane]?
response vs control in vivo at 10 mg/kg (L1210 leukemia [1]; days 1-9): 171%; % T/C (L1210 leukemia [2]; J. Med. Chem. 33, 1369 (1990)): 350%; Cured (L1210 leukemia [2]; J. Med. Chem. 33, 1369 (1990)): 0/6; Cured (L1210 leukemia [2]; J. Med. Chem. 33, 1369 (1990), listed as N,N'-bis[3-(amino)propyl]-1,8-diaminooctane): no cures; Delayed toxicity (L1210 leukemia [2]): exhibited delayed toxicity

With CNCCCNCCCCCCCCNCCCNC [Compound 27259, N,N'-Bis(3-(methylamino)propyl)-1,8-octanediamine tetrahydrochloride] as the compound, how does the response vs control in vivo at 10 mg/kg (L1210 leukemia [1]; days 1-9) read?
The response vs control in vivo at 10 mg/kg was 172%.

For CCNCCCNCCCCCCCCNCCCNCC [Compound 27393, N,N'-Bis(3-(ethylamino)propyl)-1,8-octanediamine tetrahydrochloride], which response vs control in vivo at 10 mg/kg (L1210 leukemia [1]; days 1-9) is on record?
Its response vs control in vivo at 10 mg/kg is 112%.

With CNCCCNCCCCCCCNCCCNC [Compound 28249, N,N'-bis[3-(methylamino)propyl]-1,7-diaminoheptane] as the compound, how does the response vs control in vivo at 10 mg/kg (L1210 leukemia [1]; days 1-5) read?
Its response vs control in vivo at 10 mg/kg is 110%.

With CCNCCCNCCCCCCCNCCCNCC [Compound 28314, N,N'-Bis[3-(ethylamino)propyl]-1,7-heptanediamine] as the compound, how does the response vs control in vivo at 10 mg/kg (L1210 leukemia [1]; days 1-5) read?
Its response vs control in vivo at 10 mg/kg is 200%.

What about the “Cured (mice surviving beyond day 45)” value (L1210 leukemia [3]; [6]) of the same compound?
Its value is 5/5.

And the “Survival in days (Mean ± S.E.)” value (L1210 leukemia [3]; [6])?
Its value is over 45 days.

And the “Cured (mice surviving beyond day 45)” value (L1210 leukemia [3]; [7])?
The value was 0/5.

What about the “Survival in days (Mean ± S.E.)” value (L1210 leukemia [3]; [7]) of the same compound?
The value was 16.0 ± 4.0 days.

And the “Cured (mice surviving beyond day 45)” value (L1210 leukemia [3]; [8])?
Its value is 5/5.

And the “Survival in days (Mean ± S.E.)” value (L1210 leukemia [3]; [8])?
Its value is over 45 days.

What about the “Curative effect against L1210 leukemia in vivo” value (L1210 leukemia [3]; at 20 and 40 mg/Kg/day) of the same compound?
The value was “effective in providing a curative effect”.

What about the “Lung Metastasis % Inhibition” value ([4]; days 1-5, 10 mg/Kg, i.p., day 18) of the same compound?
The value was 100%.

What about the “Lung Metastasis No. foci ± S.E.” value ([4]; days 1-5, 10 mg/Kg, i.p., day 18, n = 6, control 21.3 ± 11.5) of the same compound?
The value was 0 foci.

And the “antimetastatic effect in inhibiting lung metastasis” value ([4]; results as presented in Table 4)?
Its value is “antimetastatic effect”.

What about the “Liver Metastasis % Inhibition” value ([5]; days 1-5, 5 mg/Kg) of the same compound?
The value was 87%.

And the “Liver Metastasis No. foci ± S.E.” value ([5]; days 1-5, 5 mg/Kg)?
The value was 29.2 ± 7.7 foci.

What about the “Liver Metastasis % Inhibition” value ([5]; days 3-8, 5 mg/Kg) of the same compound?
The value was 72%.

And the “Liver Metastasis No. foci ± S.E.” value ([5]; days 3-8, 5 mg/Kg)?
The value was 62.3 ± 17.5 foci.

Which response vs control in vivo at 10 mg/kg (L1210 leukemia [1]; days 1-5) does the source give for CC(N)CCNCCCCCCCNCCC(C)N (centres unmarked) [Compound 28516, N,N'-bis[3-(amino)butyl]-1,7-diaminoheptane, reference compound] here?
The response vs control in vivo at 10 mg/kg was 200%.

Which response vs control in vivo at 10 mg/kg (L1210 leukemia [1]; days 1-5) does the source give for CNCC(C)CNCCCCCCCNCC(C)CNC (centres unmarked) [Compound 28600, N,N'-bis[3-(methylamino)-2-(methyl)propyl]-1,7-diaminoheptane] here?
The response vs control in vivo at 10 mg/kg was 132%.

For CNC(C)CCNCCCCCCCNCCC(C)NC (centres unmarked) [Compound 101060, N,N'-Bis[3-(methylamino)butyl]-1,7-diaminoheptane tetrahydrochloride], which response vs control in vivo at 10 mg/kg (L1210 leukemia [1]; days 1-5) is on record?
The response vs control in vivo at 10 mg/kg was 180%.
